In patent US20080300263A1, “Pyrazolo [1,5-a] pyrimidine compounds and pharmaceutical compositions containing them” (EiRx Therapeutics plc, priority 2005, published 2008):
Read-outs that look alike come from different tables or passages of the source.

Assays:
[1] = tested on: HCT116; test: EC50 titration, Alamar Blue; format: cell-based; details: Homo sapiens, HCT-116
Experimental: (§1) On the day of the assay compounds are used to prepare dilution series on Titration Plates which are plated at ten times their final screening concentration in 10 μl aliquots.
(§2) For adherent cell lines plated 24 hours previously, a 90 μl volume of the appropriate cell culture medium is then added to each well of the Titration Plates and mixed by repeated aspiration/dispensing, thus taking the compounds to their final test concentration. Once the Titration Plates have been prepared the media is removed from all wells of the cell culture plate and the contents of the Titration Plates are then transferred to the appropriate wells of their relevant Test Plates and incubated for 72 h at 37° C. and 5% CO2 after which time they are assayed by Alamar Blue. Using a combination of Microsoft Excel and Graph Pad Prism, EC50s are determined.
(§3) The EC50 values are calculated using the values obtained from the Alamar Blue readout which are converted into a “Percentage of the Untreated Control” and using Graph Pad Prism these values are plotted against the logarithm of the test concentration. Using a non-linear regression analysis a sigmoidal dose-response curve is generated from which the EC50 is determined.

[2] = tested on: LoVo; test: EC50 titration, Alamar Blue; format: cell-based; details: Homo sapiens
Experimental: as §1, §2, §3

[3] = tested on: NCI ADR RES Breast adenocarcinoma (pleural effusion); test: Primary high-throughput screen, Alamar Blue, adherent cells; format: cell-based; details: Homo sapiens, compound at 10 μM, 72 h, read-out: percentage kill, NCI ADR RES
Experimental: (§4) Adherent cells are plated at a pre-determined seeding density (Table 1) in flat-bottom 96 well plates 24 hours prior to drug treatment. The cell lines are plated in 100 μl volumes in each well. Cells are plated in all wells apart from those in Column 12 which contain 100 μL normal culture medium alone. These plates will be known as the Test Plates. The Test Plates are labelled with a Daughter Plate ID.
(§5) Daughter Plates containing 10 μl of a […] solution of test compound selected from among the candidate compounds stored at […] are thawed at room temperature. A 10 μL volume of 0.1% DMSO in PBS is added to all wells of Column 12 and the wells in Row A-F of Column 1. A 10 μl volume of a pre-determined concentration of the P13-Kinase inhibitor LY294002 is added to wells in Row G and H of Column 1. A 90 μl volume of the appropriate cell culture medium is then added to each well and mixed by repeated aspiration/dispensing. The compounds are at a final test concentration of 10 μM.
(§6) Once the Daughter Plates have been prepared the media is removed from all wells of the cell culture plate using an 8-Channel Vacuum Aspirator. The contents of the Daughter Plates are then transferred to the appropriate wells of their relevant Test Plates and the Test Plates are incubated for 72 h at 37° C. and 5% CO2. At the end of this period Test Plates are assayed by Alamar Blue. A 10 μl volume of Alamar Blue is added to all wells of the Test Plate. The Test Plates are incubated for […] at 37° C. and 5% CO2 and finally read using the BioTek SYNERGY plate reader (Excitation 530125 nm-Emission 590135 nm). Percentage inhibition is determined using Microsoft Excel spreadsheet calculations.
(§7) The figures appearing in the columns are the percentage kill achieved by that compound at 10 μM.

[4] = tested on: U1810 Non Small Cell Lung Carcinoma; test: as above; format: cell-based; details: U-1810; compound at 10 μM, 72 h; read-out: percentage kill, U1810
Experimental: as §4, §5, §6, §7

[5] = tested on: A549 Non Small Cell Lung Carcinoma; test: as above; format: cell-based; details: Homo sapiens, compound at 10 μM, 72 h, read-out: percentage kill, A549
Experimental: as §4, §5, §6, §7

[6] = tested on: SW480 Colon adenocarcinoma (Dukes' type B); test: as above; format: cell-based; details: Homo sapiens, compound at 10 μM, 72 h, read-out: percentage kill, SW480
Experimental: as §4, §5, §6, §7

[7] = tested on: HT29 Colorectal adenocarcinoma; test: as above; format: cell-based; details: Homo sapiens, HT-29; compound at 10 μM, 72 h; read-out: percentage kill, HT29
Experimental: as §4, §5, §6, §7

[8] = tested on: LS123 Colon adenocarcinoma (Dukes' type B); test: as above; format: cell-based; details: Homo sapiens, LS-123; compound at 10 μM, 72 h; read-out: percentage kill, LS123
Experimental: as §4, §5, §6, §7

[9] = tested on: MCF7 Mammary gland adenocarcinoma; test: as above; format: cell-based; details: Homo sapiens, compound at 10 μM, 72 h, read-out: percentage kill, MCF7
Experimental: as §4, §5, §6, §7

[10] = tested on: CACO2 Colon adenocarcinoma; test: as above; format: cell-based; details: Homo sapiens, Caco-2; compound at 10 μM, 72 h; read-out: percentage kill, CAC02
Experimental: as §4, §5, §6, §7

[11] = tested on: PC3 Prostate carcinoma (bone metastasis); test: as above; format: cell-based; details: compound at 10 μM, 72 h; read-out: percentage kill, PC3
Experimental: as §4, §5, §6, §7

[12] = tested on: C9M-TF1 cells; test: EC50 titration, Alamar Blue, suspension cells; format: cell-based; details: Homo sapiens, 72 h
Experimental: as §1
(§8) Suspension cells are split 24 hours prior to drug treatment in order to bring the cultures into the log phase of growth. On the day of the assay the cells are plated directly into the Titration Plates at the appropriate pre-determined seeding density (Table 1) in 90 μl volumes thus reducing the concentration of the compounds to their final test concentration. The plates are incubated for 72 hours at 37° C. and 5% CO2 after which time they are assayed by Alamar Blue.
as §3

[13] = tested on: FRAT2 overexpresing TF1 (FRAT2-C9M-TF1 cells); test: Primary high-throughput screen, Alamar Blue, suspension cells; format: cell-based; details: Homo sapiens, compound at 10 μM, 72 h
Experimental: as §5, §6
(§9) Suspension cells are split 24 hours prior to drug treatment in order to bring the cultures into the log phase of growth. On the day of the assay the cells are plated directly into the Daughter Plates at the appropriate pre-determined seeding density (Table 1) in 90 μl volumes, the concentration of the test compounds thus being reduced to 10 μM. Cells are plated in all wells apart from those in Column 12 which contain 901 normal culture medium alone. The plates are incubated for 72 h at 37° C. and 5% CO2 after which time they are assayed by Alamar Blue as per the preceding example.
as §7

[14] = tested on: C9M-TF1 cells; test: as above; format: cell-based; details: Homo sapiens, 72 h, compound at 10 μM, read-out: percentage kill, C9M
Experimental: as §5, §6, §9, §7

[15] = tested on: FRAT2-C9M-TF1 cells; test: EC50 titration, Alamar Blue, suspension cells; format: cell-based, Human; details: for EC50: Homo sapiens, 72 h, Alamar Blue
Experimental: as §1, §8, §3

[16] = tested on: breast cancer cell line MCF7; test: EC50 titration, Alamar Blue, adherent cells; format: cell-based; details: Homo sapiens, 72 h
Experimental: as §1, §2, §3

[17] = tested on: non-transformed breast cell line MCF10A; test: EC50 titration, Alamar Blue, adherent cells; format: cell-based; details: Homo sapiens, MCF-10A, 72 h
Experimental: as §1, §2, §3

[18] = tested on: colon cancer cell line HT29; test: EC50 titration, Alamar Blue, adherent cells; format: cell-based; details: Homo sapiens, HT-29, 72 h
Experimental: as §1, §2, §3

[19] = tested on: FRAT2-C9M-TF1 cells; test: LY294002 control plate titration, Alamar Blue; format: cell-based; details: Homo sapiens, 72 h, FIG. 8
Experimental: (§10) This example describes an assay to examine the effect of the PI3K inhibitor LY294002 on cell survival for both FRAT2-[…]-TF1 or […]-TF1 cells, as determined by Alamar Blue. The growth factor GMCSF mediates its survival effect through the PI3/AKT pathway. Consequently, inhibitors of this pathway will increase apoptosis in pathway-dependent cell lines. Both FRAT2-[…]-TF1 or […]-TF1 are split 24 hours prior to drug treatment in order to bring the cultures into the log phase of growth. On the day of the assay the cells are plated directly into a 96 well microtitre plates containing 10 uL volumes of a serial dilutions of LY294002, such that there was a final cell number of 5000 cells per well in 90 uL volumes thus reducing the concentration of the compounds to their final test concentration. The plates are incubated for 72 h at 37° C. and 5% CO2 after which time they are assayed by Alamar Blue. […] The overexpression of FRAT2 leads to the stabilization β-catenin through disassociation of GSK3β from Axin and through the inhibition of β-catenin phosphorylation which results in an increased level of β-catenin in the nucleus of the cell where it forms a complex with the HMB box transcription factors LEF and TCF as well as with CREB Binding Protein. […]

[20] = tested on: C9M-TF1 cells; test: LY294002 control plate titration, Alamar Blue; format: cell-based; details: Homo sapiens, 72 h, FIG. 8
Experimental: as §10

[21] = tested on: colon cancer; details: cited from earlier work
[22] = minus GMCSF, read-out: percentage kill, FRAT2−
[23] = plus GMCSF, read-out: percentage kill, FRAT2+

| EC50 [1] [µM] | EC50 [16] [µM] | EC50 [18] [µM] | Compound | inhibition at 10 µM [3] [%] | inhibition at 10 µM [4] [%] | inhibition at 10 µM [5] [%] | inhibition at 10 µM [6] [%] | inhibition at 10 µM [7] [%] | inhibition at 10 µM [8] [%] | inhibition at 10 µM [9] [%] | inhibition at 10 µM [10] [%] | inhibition at 10 µM [11] [%] | EC50 [12] [µM] | inhibition at 10 µM [13, 22] [%] | inhibition at 10 µM [13, 23] [%] | inhibition at 10 µM ([14]; first C9M column) [%] | inhibition at 10 µM ([14]; second C9M column) [%] | EC50 ([15]; absence of growth factor) [µM] | EC50 ([15]; presence of growth factor) [µM] | EC50 [17] [µM] | further results |
| --- | --- | --- | --- | --- | --- | --- | --- | --- | --- | --- | --- | --- | --- | --- | --- | --- | --- | --- | --- | --- | --- |
| 3 | 2.24 | 4.37 | COc1ccc(-c2cnn3c(NCc4ccccn4)ccnc23)cc1OC [Compound 2] | 73 | 23 | 18 | 68 | 60 | 91 | 68 | 66 | 4 | 24 | 57 | 33 | -2 | 0 | 6.31 | 7.08 | 20.4 | EC50 [2]: 2.2 µM |
| 2.2 | 0.83 | 0.74 | COc1ccc(-c2cnn3c(NCc4ccccn4)ccnc23)cc1 [Compound 3] | 66 | 15 | 13 | 64 | 80 | 95 | 85 | 58 | -20 | 5.62 | 76 | 40 | 8 | -12 | 4.17 | 2.24 | 7.24 | EC50 [2]: 2.2 µM |
| – | 1.7 | 2 | COc1ccc(-c2cnn3c(NCc4ccccn4)ccnc23)cn1 [Compound 9] | 64 | 52 | 7 | 58 | 69 | 80 | 76 | 65 | 9 | 17.8 | 62 | 15 | 9 | -5 | 3.39 | 2.04 | 12.9 | – |
| – | 1.86 | 1.78 | Cc1csc(-c2cnn3c(NCc4ccccn4)ccnc23)c1 [Compound 10] | 52 | 16 | 8 | 51 | 68 | 89 | 77 | 25 | -45 | 22.9 | 71 | 16 | 14 | -8 | 5.37 | 4.68 | 20.4 | – |
| 21 | 1.07 | 5.37 | O=c1cc(N2CCOCC2)oc2c(-c3ccccc3)cccc12 [LY294002, reference compound] | – | – | – | – | – | – | – | – | – | 6.03 | – | – | – | – | 75.9 | 51.3 | 12.9 | EC50 [2]: 3 µM; EC50 [19]: ~50 µM; EC50 [20]: ~6 µM; difference of EC50 between FRAT2-C9M-TF1 and C9M-TF1 cells ([15]; FRAT2-C9M-TF1 cells more resistant): approx. 8.5 fold |
| – | – | – | Avastin: FDA-approved monoclonal antibody (Genentech) blocking vascular endothelial growth factor (VEGF) | – | – | – | – | – | – | – | – | – | – | – | – | – | – | – | – | – | lived longer than patients on the standard regimen alone [21]: about five |
